Data from patent US12378224B2 (Dong-A Socio Holdings Co., Ltd., priority 2016, dated 2025).

Target: human MER (528-end) (Homo sapiens (Human), UniProt Q12866)
Test: HTRF Kinase Activity Biochemical Assay (KinEASE-TK)
Settings: 10 uM ATP
Procedure: For the SAR (structure-activity relationship) and compound screening, HTRF (Homogeneous Time Resolved Fluorescence) kinase activity assay was employed for all MER, AXL and TYRO3 kinases using Cisbio HTRF® KinEASE™-TK kit (Cisbio, USA). The kit includes biotin-labeled TK substrate, streptavidin-XL665, Eu3+-cryptate-labeled TK antibody and HTRF® Detection buffer. There are two main steps in the kinase assay: kinase reaction and detection of phosphorylated substrate. The reaction was carried out in white low volume 384-well plate (Corning, USA) with 25 nL compound in dimethyl sulfoxide in each well. […] Then the reaction was stopped after 1 hour incubation at room temperature by adding 5 uL of HTRF® Detection buffer which also contains 0.375 nM Eu3+-cryptate-labeled TK antibody and 0.062 uM streptavidin-XL665(SA-XL665) to allow for detection of the phosphorylated peptide product. After 1 h incubation at room temperature, the fluorescence intensity was measured with Envision™ plate reader (PerkinElmer, USA). Upon excitation at 340 nm by UV, the energy from Eu3+ donor of the antibody is transferred to the FRET acceptor XL665, and […] emits light at 665 nm. The level of kinase activity was quantified by the HTRF ratio that calculated from the intensity of emission at 665 nm and emission at 620 nm (fluorescence intensity @ 665 nm/fluorescence intensity @ 620 nm×10,000). The recombinant protein of human MER (528-end) was purchased from Carnabio, Japan. The recombinant human AXL (473-end) and TYRO3 (455-end) were purchased from SignalChem, Canada.

human MER (528-end), sequence (Q12866 528-999 limits assumed): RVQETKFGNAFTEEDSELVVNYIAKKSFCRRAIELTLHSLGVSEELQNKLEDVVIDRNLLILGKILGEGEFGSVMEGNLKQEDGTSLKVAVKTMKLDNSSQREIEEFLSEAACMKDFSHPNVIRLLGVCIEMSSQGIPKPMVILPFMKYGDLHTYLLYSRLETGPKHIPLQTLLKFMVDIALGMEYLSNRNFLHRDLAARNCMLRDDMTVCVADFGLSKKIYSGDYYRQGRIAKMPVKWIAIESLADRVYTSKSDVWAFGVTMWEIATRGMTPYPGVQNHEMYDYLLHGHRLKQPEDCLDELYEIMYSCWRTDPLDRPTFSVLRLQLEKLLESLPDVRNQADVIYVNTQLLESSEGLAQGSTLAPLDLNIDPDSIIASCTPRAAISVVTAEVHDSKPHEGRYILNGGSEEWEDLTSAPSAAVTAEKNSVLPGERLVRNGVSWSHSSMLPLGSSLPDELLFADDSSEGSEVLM

Structure (SMILES)	IC50 [µM]
Cn1cc(-c2cnc(N)c(C(=O)N[C@@H]3CCN(C(=O)c4ccc(-c5ccc(F)cc5Cl)cc4Cl)C3)c2)cn1 [Example 694, (R)-2-amino-N-(1-(2′,3-dichloro-4′-fluoro-[1,1′-biphenyl]-4-carbonyl)pyrrolidin-3-yl)-5-(1-methyl-1H-pyrazol-4-yl)nicotinamide]	> 1
Cn1cc(-c2cnc(N)c(C(=O)N[C@@H]3CCN(C(=O)c4cccc(-c5cccnc5)c4)C3)c2)cn1 [Example 472, (R)-2-amino-5-(1-methyl-1H-pyrazol-4-yl)-N-(1-(3-(pyridin-3-yl)benzoyl)pyrrolidin-3-yl)nicotinamide]	> 1
Cn1cc(-c2cnc(N)c(C(=O)N[C@@H]3CCN(C(=O)/C=C/c4ccc(-c5ccccc5)cc4)C3)c2)cn1 [Example 730, (R,E)-N-(1-(3-([1,1′-biphenyl]-4-yl)acryloyl)pyrrolidin-3-yl)-2-amino-5-(1-methyl-1H-pyrazol-4-yl)nicotinamide]	0.1 to 1
COC(=O)[C@@H]1C[C@H](NC(=O)c2cc(-c3cnn(C)c3)cnc2N)CN1C(=O)c1cccc(-c2ccccc2)c1 [Example 686, methyl (2S,4S)-1-([1,1′-biphenyl]-3-carbonyl)-4-(2-amino-5-(1-methyl-1H-pyrazol-4-yl)nicotinamido)pyrrolidine-2-carboxylate]	> 1
COc1cccc(CN2CC[C@@H](NC(=O)c3cc(-c4cnn(C)c4)cnc3N)C2)c1 [Example 209, (R)-2-amino-N-(1-(3-methoxybenzyl)pyrrolidin-3-yl)-5-(1-methyl-1H-pyrazol-4-yl)nicotinamide]	> 1
COc1cc(Br)ccc1OC(=O)N1CC[C@@H](NC(=O)c2cc(-c3cnn(C)c3)cnc2N)C1 [Example 63, 4-bromo-2-methoxyphenyl (R)-3-(2-amino-5-(1-methyl-1H-pyrazol-4-yl)nicotinamido)pyrrolidine-1-carboxylate]	> 1
Cn1cc(-c2cnc(N)c(C(=O)N[C@@H]3CCN(C(=O)Nc4cccc(Oc5ccccc5)c4)C3)c2)cn1 [Example 17, (R)-2-amino-5-(1-methyl-1H-pyrazol-4-yl)-N-(1-((3-phenoxyphenyl)carbamoyl)pyrrolidin-3-yl)nicotinamide]	0.01 to 0.1
Cn1cc(-c2cnc(N)c(C(=O)N[C@@H]3CCN(C(=O)Oc4ccc(Oc5ccccc5)cc4)C3)c2)cn1 [Example 102, 4-phenoxyphenyl (R)-3-(2-amino-5-(1-methyl-1H-pyrazol-4-yl)nicotinamido)pyrrolidine-1-carboxylate]	0.1 to 1
Cn1cc(-c2cnc(N)c(C(=O)N[C@@H]3CCN(C(=O)Oc4ccc5c(c4)CCCC5)C3)c2)cn1 [Example 56, 5,6,7,8-tetrahydronaphthalen-2-yl (R)-3-(2-amino-5-(1-methyl-1H-pyrazol-4-yl)nicotinamido)pyrrolidine-1-carboxylate]	0.1 to 1
Cn1cc(-c2cnc(N)c(C(=O)NC[C@@H]3CCN(C(=O)c4ccc(-c5ccccc5)cc4)C3)c2)cn1 [Example 738, (S)—N-((1-([1,1′-biphenyl]-4-carbonyl)pyrrolidin-3-yl)methyl)-2-amino-5-(1-methyl-1H-pyrazol-4-yl)nicotinamide]	> 1
Cn1cc(-c2cnc(N)c(C(=O)N[C@@H]3CCN(C(=O)Oc4cccc(-c5ccc(CNC6CNC6)cc5)c4)C3)c2)cn1 [Example 306, 4′-((azetidin-3-ylamino)methyl)-[1,1′-biphenyl]-3-yl (R)-3-(2-amino-5-(1-methyl-1H-pyrazol-4-yl)nicotinamido)pyrrolidine-1-carboxylate]	0.1 to 1
Cn1cc(-c2cnc(N)c(C(=O)N[C@@H]3CCN(C(=O)Nc4cccc(Cl)c4)C3)c2)cn1 [Example 14, (R)-2-amino-N-(1-((3-chlorophenyl)carbamoyl)pyrrolidin-3-yl)-5-(1-methyl-1H-pyrazol-4-yl)nicotinamide]	> 1
Cn1cc(-c2cnc(N)c(C(=O)N[C@@H]3CCN(C(=O)Oc4cccc(-c5ccc(CN6CCCNCC6)cc5)c4)C3)c2)cn1 [Example 323, 4′-((1,4-diazepan-1-yl)methyl)-[1,1′-biphenyl]-3-yl (R)-3-(2-amino-5-(1-methyl-1H-pyrazol-4-yl)nicotinamido)pyrrolidine-1-carboxylate]	0.1 to 1
COc1ccc(OC)c(CN2CC[C@@H](NC(=O)c3cc(-c4cnn(C)c4)cnc3N)C2)c1 [Example 218, (R)-2-amino-N-(1-(2,5-dimethoxybenzyl)pyrrolidin-3-yl)-5-(1-methyl-1H-pyrazol-4-yl)nicotinamide]	> 1
Nc1ncc(-c2cnn(C3CCNCC3)c2)cc1C(=O)N[C@@H]1CCN(C(=O)c2ccc(-c3ccccc3)cc2)C1 [Example 562, (R)—N-(1-([1,1′-biphenyl]-4-carbonyl)pyrrolidin-3-yl)-2-amino-5-(1-(piperidin-4-yl)-1H-pyrazol-4-yl)nicotinamide]	0.01 to 0.1
Cn1cc(-c2cnc(N)c(C(=O)N[C@@H]3CCN(C(=O)NC4CCC(OCc5ccccc5)C4)C3)c2)cn1 (stereo partly drawn) [Example 41, 2-amino-N-((3R)-1-((3-(benzyloxy)cyclopentyl)carbamoyl)pyrrolidin-3-yl)-5-(1-methyl-1H-pyrazol-4-yl)nicotinamide]	> 1
CN1CCN(Cc2ccc(/C=C/C(=O)N3CC[C@@H](NC(=O)c4cc(-c5cnn(C)c5)cnc4N)C3)cc2)CC1 [Example 429, (R,E)-2-amino-5-(1-methyl-1H-pyrazol-4-yl)-N-(1-(3-(4-((4-methylpiperazin-1-yl)methyl)phenyl)acryloyl)pyrrolidin-3-yl)nicotinamide]	0.1 to 1
Cn1cc(-c2cnc(N)c(C(=O)N[C@@H]3C[C@H](C(=O)O)N(C(=O)c4ccc(-c5ccc(F)cc5Cl)cc4)C3)c2)cn1 [Example 839, (2R,4R)-4-(2-amino-5-(1-methyl-1H-pyrazol-4-yl)nicotinamido)-1-(2′-chloro-4′-fluoro-[1,1′-biphenyl]-4-carbonyl)pyrrolidine-2-carboxylic acid]	> 1
CN1CCN(Cc2ccc(C(=O)N3CC[C@@H](NC(=O)c4cc(-c5cnn(C)c5)cnc4N)C3)cc2)CC1 [Example 640, (R)-2-amino-5-(1-methyl-1H-pyrazol-4-yl)-N-(1-(4-((4-methylpiperazin-1-yl)methyl)benzoyl)pyrrolidin-3-yl)nicotinamide]	> 1
Cc1ccc(C(=O)N2CC[C@@H](NC(=O)c3cc(-c4cnn(C)c4)cnc3N)C2)cc1-c1ccccc1 [Example 482, (R)-2-amino-5-(1-methyl-1H-pyrazol-4-yl)-N-(1-(6-methyl-[1,1′-biphenyl]-3-carbonyl)pyrrolidin-3-yl)nicotinamide]	> 1
Cc1c(N)cccc1-c1ccc(C(=O)N2CC[C@@H](NC(=O)c3cc(-c4cnn(C)c4)cnc3N)C2)cc1 [Example 376, (R)-2-amino-N-(1-(3′-amino-2′-methyl-[1,1′-biphenyl]-4-carbonyl)pyrrolidin-3-yl)-5-(1-methyl-1H-pyrazol-4-yl)nicotinamide]	0.1 to 1
C[C@H](CO)NCc1ccc(-c2cccc(OC(=O)N3CC[C@@H](NC(=O)c4cc(-c5cnn(C)c5)cnc4N)C3)c2)cc1 [Example 327, 4′-((((R)-1-hydroxypropan-2-yl)amino)methyl)-[1,1′-biphenyl]-3-yl (R)-3-(2-amino-5-(1-methyl-1H-pyrazol-4-yl)nicotinamido)pyrrolidine-1-carboxylate]	0.1 to 1
Cn1cc(-c2cnc(N)c(C(=O)N[C@@H]3CCN(C(=O)[C@H]4C[C@@H]4c4ccccc4)C3)c2)cn1 [Example 705, 2-amino-5-(1-methyl-1H-pyrazol-4-yl)-N—((R)-1-((1S,2S)-2-phenylcyclopropane-1-carbonyl)pyrrolidin-3-yl)nicotinamide]	> 1
CN1CCN(Cc2cccc(-c3cccc(CN4CC[C@@H](NC(=O)c5cc(-c6cnn(C)c6)cnc5N)C4)c3)c2)CC1 [Example 245, (R)-2-amino-5-(1-methyl-1H-pyrazol-4-yl)-N-(1-((3′-((4-methylpiperazin-1-yl)methyl)-[1,1′-biphenyl]-3-yl)methyl)pyrrolidin-3-yl)nicotinamide]	> 1
CN(C)c1ccc(NC(=S)N2CC[C@@H](NC(=O)c3cc(-c4cnn(C)c4)cnc3N)C2)cc1 [Example 48, (R)-2-amino-N-(1-((4-(dimethylamino)phenyl)carbamothioyl)pyrrolidin-3-yl)-5-(1-methyl-1H-pyrazol-4-yl)nicotinamide]	> 1
Cn1cc(-c2cnc(N)c(C(=O)N[C@@H]3CCN(C(=O)Oc4ccc(Cl)cc4N)C3)c2)cn1 [Example 99, 2-amino-4-chlorophenyl (R)-3-(2-amino-5-(1-methyl-1H-pyrazol-4-yl)nicotinamido)pyrrolidine-1-carboxylate]	> 1
CC(NCc1ccc(-c2cccc3c(C(=O)N4CC[C@@H](NC(=O)c5cc(-c6cnn(C)c6)cnc5N)C4)cccc23)cc1)C1CCN(C)CC1 (stereo partly shown) [Example 445]	> 1
COCCn1cc(-c2cnc(N)c(C(=O)N[C@@H]3CCN(C(=O)c4ccc(-c5ccccc5Cl)cc4)C3)c2)cn1 [Example 573, (R)-2-amino-N-(1-(2′-chloro-[1,1′-biphenyl]-4-carbonyl)pyrrolidin-3-yl)-5-(1-(2-methoxyethyl)-1H-pyrazol-4-yl)nicotinamide]	0.01 to 0.1
